In this experiment the test system is rabbit lenses. The experiment is described as follows: Calcium-induced lens opacification in cultured rabbit lenses, transparency evaluation. The class given is cell-based. As to conditions: 20 mM CaCl2 plus polyamine 100 mM; for Effect on calcium-induced lens opacification (in words): 72 hours; for Percent Light Transmittance After Treatments (Average): 72 hours of treatment, absorbance at 394 nm, triplicate, Control 73.3, Ca alone 47.3. As to the method: Rabbit eyes were obtained from a rabbit renderer and were dissected within twenty-four (24) hours of the animal's death. The lenses were removed aseptically and cultured in M199 media, 20 mM HEPES, 100 units/ml penicillin, […] streptomycin and 0.1% BSA under 5% CO2 at 37° C. in a humidified incubator for twenty-four hours before the start of treatment. Lens opacification was induced with 20 mM CaCl2, according to the method of Hytower and Dering (Hightower Kr, Dering, M (1984) Invest Ophthalmol Vis Sci 251:108-111). Polyamines were added at a concentration of 100 mM. All experiments were done in triplicate.
Transparency Evaluation: When proteins are modified or oxidized they aggregate, and cause protein solutions to become cloudy or translucent because the proteins lose solubility. The turbidity of a protein solution is a measure of protein aggregation. Turbidity of the lenses after treatment was determined by measuring the increase in protein absorbency. Control (no Ca++), Ca++ and Ca++ with polyamines spermidine, spermine, or putrescine were collected and homogenized in lysis buffer [50 mM Tris-HCl, pH 8.0; 150 mM NaCl, 1% Igepal and protease inhibitor cocktail (Sigma)] after seventy-two (72) hours of treatment. Absorbance was measured at 394 nm for each sample using a spectrophotometer. Transparency was calculated as a function of the percent transmittance according to Jain (Jain Ak, Lim G, Langford M, Jain Sk (2002) Free Radic Biol Med 33:1615-1621).

Turning to `NCCCCN` [Putrescine, putrescine], the “Effect on calcium-induced lens opacification (in words)” value is on record as “reduce calcium-induced lens opacification” and the “Percent Light Transmittance After Treatments (Average)” value stood at 65.7%.
For `NCCCCNCCCN` [Spermidine, spermidine], in that order: “reduce calcium-induced lens opacification” and 56.8%.
Turning to `NCCCNCCCCNCCCN` [Spermine, spermine], the “Percent Light Transmittance After Treatments (Average)” value is 53%.

(Values after patent publication US20140107218A1, “METHODS FOR MAINTAINING EYE HEALTH AND AMELIORATING OPTHALMIC MALADIES IN ANIMALS” (NESTEC SA, priority 2012, published 2014).)
